In brackets after ≈: the same amount, converted by molar mass. Read-outs that look alike come from different tables or passages of the source. Marks after values point to notes of the source that are not given here.
Key:
MRSA = assay: Minimum bactericidal concentration (MBC) with and without white light; assay type: cell-based, S. aureus; settings: Staphylococcus aureus, light or radiation study
Method: The bacterial media was inoculated with bacteria and incubated overnight. The bacterial cultures were diluted to 5×10^8 CFU/mL using a McFarland latex turbidity standard (0.5). Compound 1 was diluted with sterile DMSO, which was added to the cell suspension in glass culture tubes. The cells were then incubated for 30 minutes at 37° C. on a rotary shaking incubator at 150 rpm. 500 μL of the treated cell suspension was added to a well on a sterile ceramic drop plate. Non-coherent white light from a Lumacare™ LC-122 unit was used to irradiate the samples. The end of the light probe was placed 3 cm above the sample well, perpendicular to the surface of the sample, and light was applied for 2 minutes (15 seconds light, 15 seconds dark). 200 μL of the irradiated sample was transferred to a 96-well plastic microtiter plate and five ten-fold dilutions were made in the media. 10 μL of each dilution was dripped onto an agar media plate and was allowed to streak down the plate by tilting the plate down. The agar plates were incubated at 37° C. overnight and colony counts were performed to calculate the CFU/mL.
TABLE 14 details the MBC values of compounds 1-6 against MRSA with and without irradiation with white light. Irradiation involved treatment with a LumaCare™ light source at 3 cm from media for 1 min.

HeLa cells = assay: Toxicity (IC50) on HeLa cells; assay type: cell-based, human; settings: cancerous cervical epithelium HeLa cells; for IC50: Homo sapiens
Method: The toxicities of the compounds of the invention were determined for human cancerous cervical epithelium HeLa and normal lung fibroblast WI38 cells. The toxicities of EPIs INF-55 and INF-55Cl were quantified as controls. […] TABLE 2 compares the toxicity of compounds 7-11 on HeLa cells and normal WI38 cells.

VRE = assay: MIC against VRE; assay type: cell-based, Enterococcus faecalis
Method: In a 12×75 mm borosilicate glass culture tube, 1 mL of cell suspension was added. Then, compound 7 was added to the cells, and the samples were mixed using a vortex mixer. […] The samples were incubated overnight at 37° C. on a rotary shaking incubator at 100 rpm.

S. aureus (ATCC 29213) = assay: MIC against drug sensitive S. aureus; assay type: cell-based; settings: Staphylococcus aureus
[1] = MIC against MRSA isolates; assay type: cell-based, S. aureus; settings: Staphylococcus aureus
Method: (§1) The MICs of S. aureus ATCC 33591, BAA-44, BAA-1707, BAA-1717, BAA-1720, BAA-1747, BAA-1754, BAA-1761, BAA-1763, BAA-1764, and BAA-1766 were measured using a cell concentration of about 5×10^5 colony forming units (CFU)/mL. In a 96-well microtiter plate, two-fold dilutions were made of each drug (starting with 100 μM) in 100 μL of a cell suspension in trypticase soy broth (TSB). The samples were incubated overnight at 37° C. on a rotary shaking incubator set at 100 revolutions per minute (rpm) and were visually inspected for turbidity. A 20% well-volume of 3-(4,5-dimethylthiazol-2-yl)-2,5-diphenyltetrazolium bromide (MTT reagent, 5 mg/mL) was added, and the samples were incubated for about 20 minutes. The MICs were determined as the lowest concentration at which full visual inhibition was observed by the unaided eye.

[2] = system: MRSA isolates (S. aureus ATCC 33591, BAA-44, BAA-1707, BAA-1717, BAA-1720, BAA-1747, BAA-1754, BAA-1761, BAA-1763, BAA-1764, BAA-1766); assay: MIC against MRSA isolates; assay type: cell-based
Method: as §1

[3] = 1 min, LumaCare light source at 3 cm from media for 1 min, read-out: MBC with irradiation
[4] = no irradiation, read-out: MBC in the dark
[5] = Enterococcus, TABLE 23, read-out: VRE MIC
[6] = ATCC29213, ATCC 29213, read-out: S. aureus MIC
[7] = MRSA (ATCC BAA-44), TABLE 21, read-out: MRSA MIC
[8] = Enterococcus, common antibiotics, TABLE 24, read-out: MIC
[9] = antibiotics, MRSA isolate ATCC BAA-44
[10] = antibiotics, MRSA isolate ATCC BAA-1717
[11] = antibiotics, MRSA isolate ATCC 33591
[12] = antibiotics, MRSA isolate ATCC BAA-1707
[13] = antibiotics, MRSA isolate ATCC BAA-1720
[14] = antibiotics, MRSA isolate ATCC BAA-1747
[15] = antibiotics, MRSA isolate ATCC BAA-1754
[16] = antibiotics, MRSA isolate ATCC BAA-1761
[17] = antibiotics, MRSA isolate ATCC BAA-1763
[18] = antibiotics, MRSA isolate ATCC BAA-1764
[19] = antibiotics, MRSA isolate ATCC BAA-1766

Molecule: C(=C\c1[nH]c2ccccc2c1/C=C/c1ccccc1)/c1ccccc1 [Compound 2]
- MBC (MRSA; [3]): 0.5 µM (≈ 0.161 µg/mL)
- MBC (MRSA; [4]): 100 µM (≈ 32.1 µg/mL)

Molecule: COc1ccc(/C=C/c2[nH]c3ccccc3c2/C=C/c2ccc(OC)cc2)cc1 [Compound 3]
- MBC (MRSA; [3]): 0.5 µM (≈ 0.191 µg/mL)
- MBC (MRSA; [4]): 200 µM (≈ 76.3 µg/mL)

Molecule: Clc1ccccc1/C=C/c1[nH]c2ccccc2c1/C=C/c1ccccc1Cl [Compound 5]
- MBC (MRSA; [3]): 0.5 µM (≈ 0.195 µg/mL)
- MBC (MRSA; [4]): 200 µM (≈ 78.1 µg/mL)

Molecule: Clc1cccc(/C=C/c2[nH]c3ccccc3c2/C=C/c2cccc(Cl)c2)c1 [Compound 6]
- MBC (MRSA; [3]): 1 µM (≈ 0.39 µg/mL)
- MBC (MRSA; [4]): 200 µM (≈ 78.1 µg/mL)

Molecule: Clc1ccc(-c2cc3[nH]c4ccccc4c3cc2-c2ccc(Cl)cc2)cc1 [Compound 13]
- IC50 (HeLa cells): 16.4 ± 1.1 µM

Molecule: Clc1ccc(Sc2c(-c3ccc(Br)cc3)[nH]c3ccccc23)cc1 [Compound 14]
- IC50 (HeLa cells): 12.2 ± 1.6 µM

Molecule: Clc1ccc(-c2cc3ccccc3[nH]2)cc1 [Compound 15]
- IC50 HeLa (HeLa cells): Non-Toxic

Molecule: Clc1ccc(Sc2c(-c3ccc(Cl)cc3)[nH]c3ccccc23)cc1 [Compound 16]
- IC50 (HeLa cells): 6.4 ± 1 µM

Molecule: O=S(=O)(c1ccc(Cl)cc1)c1c(-c2ccc(Cl)cc2)[nH]c2ccccc12 [Compound 18]
- IC50 (HeLa cells): 14.3 ± 0.7 µM

Molecule: O=C(c1ccc(Cl)cc1)c1c(-c2ccc(Cl)cc2)[nH]c2ccccc12 [Compound 19]
- IC50 (HeLa cells): 35.8 ± 6 µM

Molecule: O=[N+]([O-])c1ccc2[nH]c(-c3ccc(Cl)cc3)cc2c1 [Compound 20]
- IC50 HeLa (HeLa cells): Non-Toxic

Molecule: Clc1ccc(Sc2c(-c3ccc(Cl)cc3)[nH]c3ccc(Cl)cc23)cc1 [Compound 21]
- IC50 (HeLa cells): 8.2 ± 1 µM

Molecule: Clc1ccc(Oc2c(-c3ccc(Cl)cc3)[nH]c3ccc(Br)cc23)cc1 [Compound 22]
- IC50 (HeLa cells): 3.2 ± 0.4 µM

Molecule: Fc1ccc2[nH]c(-c3ccc(Cl)cc3)c(Oc3ccc(Cl)cc3)c2c1 [Compound 23]
- IC50 (HeLa cells): 12.9 ± 3.2 µM

Molecule: COc1ccc2[nH]c(-c3ccc(Cl)cc3)c(Oc3ccc(Cl)cc3)c2c1 [Compound 24]
- IC50 (HeLa cells): 23.9 ± 1.8 µM

Molecule: Fc1cccc2c(Oc3ccc(Cl)cc3)c(-c3ccc(Cl)cc3)[nH]c12 [Compound 25]
- IC50 (HeLa cells): 13 ± 3.5 µM

Molecule: CCOC(=O)c1ccc2[nH]c(-c3ccc(Cl)cc3)c(Oc3ccc(Cl)cc3)c2c1 [Compound 26]
- IC50 (HeLa cells): 18.6 ± 1.1 µM

Molecule: Clc1ccc(/N=N/c2c(-c3ccc(Br)cc3)[nH]c3ccccc23)cc1 [Compound 27]
- IC50 (HeLa cells): 12.5 ± 0.2 µM

Molecule: Brc1ccc(/N=N/c2c(-c3ccc(Br)cc3)[nH]c3ccccc23)cc1 [Compound 28]
- IC50 (HeLa cells): 8.6 ± 1.4 µM

Molecule: Fc1ccc(/N=N/c2c(-c3ccc(F)cc3)[nH]c3ccccc23)cc1 [Compound 29]
- IC50 (HeLa cells): 11.6 ± 0.7 µM

Molecule: COC(=O)n1c(Br)c(Br)c2ccccc21 [Compound 31]
- IC50 HeLa (HeLa cells): Non-Toxic

Molecule: Cc1onc(-c2c(Cl)cccc2Cl)c1C(=O)N[C@@H]1C(=O)N2[C@@H]1SC(C)(C)[C@@H]2C(=O)O [Dicloxicillin, reference compound]
- MIC (VRE; [5]): 4 µg/mL (≈ 8.5 µM)
- MIC (S. aureus (ATCC 29213); [6]): 50 to 100 µg/mL (≈ 106 to 213 µM)

Molecule: C[C@H]1c2cccc(O)c2C(=O)C2=C(O)[C@]3(O)C(=O)C(C(N)=O)=C(O)[C@@H](N(C)C)[C@@H]3[C@@H](O)[C@@H]21 [Doxycycline, reference compound]
- MIC (VRE; [5]): 0.25 to 0.5 µg/mL (≈ 0.563 to 1.13 µM)
- MIC (S. aureus (ATCC 29213); [6]): 3.12 µg/mL (≈ 7.02 µM)
- MIC [1, 7]: 3.12 µg/mL (≈ 7.02 µM)

Molecule: CC[C@H]1OC(=O)[C@H](C)[C@@H](O[C@H]2C[C@@](C)(OC)[C@@H](O)[C@H](C)O2)[C@H](C)[C@@H](O[C@@H]2O[C@H](C)C[C@H](N(C)C)[C@H]2O)[C@](C)(O)C[C@@H](C)C(=O)[C@H](C)[C@@H](O)[C@]1(C)O [Erythromycin, reference compound]
- MIC (VRE; [8]): > 32 µg/mL
- S/R (VRE; TABLE 24): R
- MIC [1, 9]: > 1000 µg/mL
- MIC [1, 10]: 30 µg/mL (≈ 40.9 µM)

Molecule: O=[N+]([O-])c1ccc2[nH]c(-c3ccccc3)cc2c1 [INF-55, reference compound]
- IC50 HeLa (HeLa cells): Non-Toxic

Molecule: CC1(C)S[C@@H]2[C@H](NC(=O)Cc3ccccc3)C(=O)N2[C@H]1C(=O)O [Penicillin G]
- S/R (VRE; TABLE 24): S
- MIC (VRE; common antibiotics, TABLE 24): 2 µg/mL (≈ 5.98 µM)

Molecule: CN(C)[C@@H]1C(O)=C(C(N)=O)C(=O)[C@@]2(O)C(O)=C3C(=O)c4c(O)cccc4[C@@](C)(O)[C@H]3C[C@@H]12 [Tetracycline]
- MIC (VRE; [8]): < 0.5 µg/mL
- S/R (VRE; TABLE 24): S

Molecule: NC[C@H]1O[C@H](O[C@H]2[C@H](O)[C@@H](O[C@H]3O[C@H](CO)[C@@H](O)[C@H](N)[C@H]3O)[C@H](N)C[C@@H]2N)[C@H](N)C[C@@H]1O [Tobramycin, reference compound]
- MIC (VRE; [5]): > 200 µg/mL
- MIC (S. aureus (ATCC 29213); [6]): 0.25 µg/mL (≈ 0.535 µM)
- MIC [1, 7]: > 5000 µg/mL

Molecule: CN[C@H](CC(C)C)C(=O)N[C@H]1C(=O)N[C@@H](CC(N)=O)C(=O)N[C@H]2C(=O)N[C@H]3C(=O)N[C@H](C(=O)N[C@H](C(=O)O)c4cc(O)cc(O)c4-c4cc3ccc4O)[C@H](O)c3ccc(c(Cl)c3)Oc3cc2cc(c3O[C@@H]2O[C@H](CO)[C@@H](O)[C@H](O)[C@H]2O[C@H]2C[C@](C)(N)[C@H](O)[C@H](C)O2)Oc2ccc(cc2Cl)[C@H]1O [Vancomycin, reference compound]
- MIC (VRE; Enterococcus): 64 µg/mL (≈ 44.2 µM)
- MIC (VRE; Enterococcus, read-out: VRE MIC): > 40 µg/mL
- S/R (VRE; TABLE 24): R
- MIC (S. aureus (ATCC 29213); ATCC29213, read-out: S. aureus MIC): 2 µg/mL (≈ 1.38 µM)
- MIC [1, 11]: < 3.1 µg/mL
- MIC [1, 9]: 3.1 µg/mL (≈ 2.14 µM)
- MIC [1, 12]: < 3.1 µg/mL
- MIC [1, 10]: < 1.6 µg/mL
- MIC [1, 13]: < 3.1 µg/mL
- MIC [1, 14]: < 3.1 µg/mL
- MIC [1, 15]: < 3.1 µg/mL
- MIC [1, 16]: < 3.1 µg/mL
- MIC [1, 17]: < 3.1 µg/mL
- MIC [1, 18]: < 3.1 µg/mL
- MIC [1, 19]: < 3.1 µg/mL
- MIC ([1]; read-out: MRSA MIC, MRSA (ATCC BAA-44), TABLE 21): 3.12 µg/mL (≈ 2.15 µM)

Molecule: Gentamycin [reference compound]
- MIC [2, 11]: >100* μg/mL
- MIC [2, 9]: >200* μg/mL
- MIC [2, 12]: <3.1 µg/mL
- MIC [2, 10]: 3.1 µg/mL
- MIC [2, 13]: <3.1 µg/mL
- MIC [2, 14]: 6.3 µg/mL
- MIC [2, 15]: <3.1 µg/mL
- MIC [2, 16]: <3.1 µg/mL
- MIC [2, 17]: 3 to 6 µg/mL
- MIC [2, 18]: <3.1 µg/mL
- MIC [2, 19]: 12.5* μg/mL

Molecule: INF-55Cl [reference compound]
- IC50 HeLa (HeLa cells): Non-Toxic

Molecule: Penicillin [reference compound]
- MIC ([2]; Penicillin, MRSA isolate ATCC BAA-44): 1.6* mg/mL
- MIC ([2]; Penicillin, MRSA isolate ATCC BAA-1717): 1* mg/mL
